Test results published in patent US11898161B2, “Stem cell culture medium and method” (RIKEN, priority 2006, dated 2024).
Several values for one entry are separate records, joined by “and”; a condition that tells them apart may be missing. Equal entries are not always repeated. Blank lines part the entries; values can stand above or below the compound they belong to. Residues, ends and D or L forms follow the SMILES beside them. *: point of attachment. Cbz = O=C(OCc1ccccc1)*; CH2F = FC*

Key:
Format in all cases: cell-based
[1] = tested on: human embryonic stem cells (KhES-1); assay: Cloning efficiency (colony formation) of dissociated human ES cells at low density on MEF feeder layer; conditions: for cloning efficiency compared to without the inhibitors: Fasudil/HA1077 10 μM, H-1152 200 nM, other kinase inhibitors at ranges of b100
Text: The Human embryonic stem cells used for the experiments described herein were embryonic stem cells (KhES-1, KhES-2 and KhES-3) from human blastocysts established in the laboratory of Norio Nakatsuji, at the Institute for Frontier Medical Sciences, Kyoto University, which were distributed and used (mainly KhES-1) following the human embryonic stem cell guidelines of the Japanese government. In accordance with the method of the Nakatsuji laboratory (Suemori et al., Biochem Biophys Res Commun. 345, 926-32 (2006)), undifferentiated human embryonic stem cells were cultured on a plastic culture dish with mouse embryonic fibroblasts (inactivated with mitomycin, MEF) seeded as a feeder layer of cells. More specifically, the culture medium containing comprising KSR (Invitrogen/Gibco-BRL) at the final concentration of 20%, 1×NEAA (non-essential amino acids, Invitrogen/Gibco BRL), 2 mM L-giutaminic acid and 0.1 mM 2-mercaptoethanol in D-MEM F12 (Sigma D6421) was used, and the culturing was performed at 37° C., 5% CO2. Passaging was performed in every three or four days, and the embryonic stem cells were detached from the feeder layer using the dissociation liquid (containing 0.25% trypsin, 1 mg/mi collagenase IV solution, 1 mM CaCl2 in a phosphate buffered saline; all of which from Invitrogen/Gibco-BRL), followed by dissociated into small cell clumps (of about 50-100 cells) by pipetting, and then were seeded on the feeder layer which had been formed from seeding MEF on the day before.
The cell death inhibiting effect and the influence on cloning efficiency, of ROCK inhibitor, for the human embryonic stem cell culture after dissociation to single cells were examined as follows. […] The embryonic stem cell clumps ware dissociated to single cells by trypsin digestion (0.25% trypsin—EDTA, at 37° C. for 5 minutes), and seeded on a MEF feeder layer in 96 well culture plates at low density (500 cells/0.32 cm^2 in 0.15 ml of medium). The number of formed colonies was counted six days after culture in the maintenance culture medium. ROCK inhibitor Y-27632 was added at the concentration of 10 μM one hour prior to detaching the cells from the feeder layer, and the same amount was added to culture in the same amount after the detachment.
The effects of other ROCK inhibitors on the cloning efficiency of human embryonic stem cells in maintenance culture were evaluated using methods as described in example 1. The ROCK inhibitors, Fasudil/HA1077 (10 μM) and H-1152 (200 nM) were used. Also, inhibitors for other kinases were used for reference. The inhibitors for other kinases used were: cAMP-Rp (1-100 μM) and KT5720 (5-500 nM), which are protein kinase A inhibitors; bisindolylmaleimide (0.01-5 μM) and staurosporine (1-50 nM), which are protein kinase C inhibitors; PD98059 (0.5-50 μM), which is an MAPK inhibitor; LY294002 (1-50 μM), which is a PI3K inhibitor; and ML-7 (0.3-30 μM), which is an MLCK inhibitor.

[2] = tested on: human embryonic stem cells; assay: Cloning efficiency at clonal density (one cell per well, 96 well plates) on MEF; conditions: 10 μM, under 1% without inhibitor
Protocol: The cell death inhibiting effect and the influence on cloning efficiency, of ROCK inhibitor, for the human embryonic stem cell culture after dissociation to single cells were examined as follows. […] The number of formed colonies was counted six days after culture in the maintenance culture medium. ROCK inhibitor Y-27632 was added at the concentration of 10 μM one hour prior to detaching the cells from the feeder layer, and the same amount was added to culture in the same amount after the detachment. Also, to evaluate whether promotion of cloning would be caused by the autocrine factor of human embryonic stem cell, a similar experiment was performed in 96 well culture plates at clonal density (one cell per well) of human embryonic stem cells, and the cloning efficiency was determined.

[3] = tested on: human ES cells; assay: Maintenance culture of singly-dissociated human ES cells on MEF with different time courses of treatment (survival, growth, apoptosis); conditions: for population doubling time: days 2 to 6 after start of dissociation culture
Protocol: As for the maintenance culture of singly-dissociated human ES cells, in order to examine whether Y-27632 promotes cell survival at the early phase of dissociation culture, Y-27632 treatment time was divided into the following three groups to compare cell survival-promoting effects in maintenance culture. Group 1: Y-27632 treatment (10 μM, same below) was conducted as 1 hour-pretreatment and only for the first 12 hours of culture after dissociation in the process of dissociation culture of human ES cells. Group 2: Y-27632 treatment was conducted as 1 hour-pretreatment and for the entire culture period after dissociation in the process of dissociation culture of human ES cells. Group 3: No Y-27632 treatment was conducted. In these groups, surviving cells on day 3 per seeded cells (5×10^4 cells per one well of a 6-well plate) were counted in maintenance culture system on MEF layer. In the same experiment as in the above Example 7, the effect of Y-27632 on the cell growth for 6 days after the start of dissociation culture was examined in Groups 1 and 2 by extending the culture period to 6 days.

[4] = tested on: human ES cells (KhES-1); assay: Feeder-free culture of singly-dissociated human ES cells, colony formation; conditions: 10 μM Y-27632, feeder-free, MEF-conditioned medium, 500 cells/well; less than 0.2% untreated
Protocol: Specifically, according to the above literature, MEF cells cultured to confluency were lysed on a culture dish by deoxycholate method to leave only extracellular matrix. Singly-dissociated human ES cells (500 cells/well of a 96-well plate) were seeded onto them under Y-2763 treatment (10 μM or 0 μM) by the same method as for the routine culture on MEF cells (abovementioned Example). Conditioned medium, in which human ES cell maintenance medium and MEF were preliminarily cultured for one day, was used as a culture medium. The number of human ES cell colonies formed 5 days later were counted.

[5] = tested on: human ES cells (KhES-1); assay: Number of surviving cells in suspension culture (SFEB) of dissociated human ES cells; conditions: 8% in non-supplemented group
Protocol: (§1) Human ES cells subjected to maintenance culture were detached as small cell clumps (aggregates) from feeder cells in the same manner as in Example 1, and after removal of residual feeder cells, they were dissociated into single cells by trypsin digestion. After centrifugation, 2×10^5 cells were dissociated in serum-free culture medium for post differentiation induction (Watanabe et al., Nature Neuroscience 8, 288-296, 2005; supplemented with G-MEM, KSR and 2-mercaptoethanol, KSR was added at a concentration of 20%). The singly-dissociated human ES cells (1.0×10^5 cells/ml) were suspension-cultured in a non-cell adhesive 35 mm culture plate to form aggregates, and were cultured in the same culture medium for 2-6 days (SFEB method; See the above reference of Watanabe et al.). After 2-day culture, the percentage of apoptic cells was measured by TUNEL method (MEBSTAIN Apoptosis kit Direct, MBL). Treatment with ROCK inhibitor, Y-27632, was initiated at 1 hour before cell separation in the same manner as in Example 1, and the inhibitor was added to maintenance culture medium also after dissociation. For comparison, caspase inhibitor (ZVAD; 10 μM) and BDNF/NT-3/NT-4 (mixture of 50 ng/ml each), whose apoptosis suppressive effect has been reported, were used to conduct the experiment. In addition, the number of surviving cells on day 6 was counted in each case.

[6] = tested on: human ES cells; assay: Differentiation induction into neuronal and brain precursor cells by SFEB method from singly-dissociated human ES cells
Text: Human ES cells subjected to maintenance culture were detached from feeder cells as small cell clumps in the same manner as in Example 4, and after removal of residual feeder cells, they were dissociated into single cells by trypsin digestion. After centrifugation, cells were dissociated into culture medium for differentiation induction at 2×10^5 cells/mL, and were suspension-cultured using a non-cell adhesive culture plate to conduct serum-free culture (SFEB method) of suspended aggregates. In addition, Nodal inhibitor LeftyA (1 μg/ml, R&D), Wnt inhibitor Dkk1 (500 ng/ml, R&D) and BMP inhibitor BMPR1A-Fc (1.5 μg/ml, R&D) were added for the first 10 days after the start of culture for differentiation induction. After serum-free suspension culture for 16-35 days, the cell aggregates were fixed and immunostained by fluorescence antibody method. Treatment with the ROCK inhibitor, Y-27632, was initiated at 1 hour before cell separation in the same manner as in Example 1, and the inhibitor was added to maintenance culture medium for the first six days also after dissociation. For the differentiation into brain precursor cells, on day 25 of SFEB culture, floating cell aggregates were transferred into a poly-D-lysine/laminin/fibronectin-coated culture slide, and were cultured in an adhesion state for additional 10 days. In the adhesion culture, Neurobasal medium, supplemented with B27 (vitamin A-free) and 2 mM L-glutamine (both supplied by Gibco-BRL), was used as a culture medium.

[7] = tested on: hES cells (KhES-3); conditions: human, 3 months
Protocol: FIGS. 4A-4L—Analysis of hES cells cultured in the presence of Y-27632 at low density. (FIGS. 4A-4C) Immunostaining of E-cadherin (FIG. 4A), Oct3/4 (FIG. 4B) and SSEA-4 (FIG. 4C) in Y-27632-treated hES cells (KhES-1) after extended passaging (30 times) at low density with Y-27632 treatment. Lower panels show DAPI staining (blue). (FIGS. 4D-4G) Histological analysis (hematoxylin-eosin staining, […] paraffin section) of teratoma tissues formed after subcapsular injection of hES cells (KhES-1) following extended passaging with Y-27632 into SCID mouse testes. (FIG. 4D) Cartilage, (FIG. 4E) neuroepithelium, (FIG. 4F) pigmented epithelium, and (g) gut-like mucosa with columnar epithelium. (FIG. 4H, FIG. 4I) After extended passaging involving low-density culture with Y-27632 treatment, efficient colony formation from dissociated hES cells (32.5±11%; KhES-1) remained dependent on Y-27632 (FIG. 4I) and few colonies were seen without it (FIG. 4H). (FIG. 4J) Dose-response relationship of two selective ROCK inhibitors (Y-27632, Fasudil; the cloning efficiency was 1.3±0.8% and 25.1±1.6% without and with 10 μM Fasudil; P<0.001, n=3) and two unrelated kinase inhibitors (cAMP-Rp, LY294002) on colony formation (KhES-1). Y-axis, ratios of promoting activity of colony formation to that with 10 μM Y-27632. […]

[8] = tested on: human ES cells (KhES-1); assay: TUNEL apoptosis assay in suspension culture of dissociated human ES cells; conditions: after 2-day suspension culture; 80% in non-supplemented control
Protocol: as §1

Structure (SMILES): O=S(=O)(c1cccc2cnccc12)N1CCCNCC1 [Fasudil]
cloning efficiency ([1]; 10 μM Fasudil, KhES-1, 1.3±0.8% without, P<0.001, n=3): 25.1±1.6% | cloning efficiency compared to without the inhibitors [1]: significant enhanced cloning efficiencies

Structure (SMILES): Cc1cncc2cccc(S(=O)(=O)N3CCCNC[C@@H]3C)c12 [H-1152]
cloning efficiency compared to without the inhibitors [1]: significant enhanced cloning efficiencies

normal karyotype [7]: 100%
Structure (SMILES): C[C@@H](N)[C@H]1CC[C@H](C(=O)Nc2ccncc2)CC1 [Y-27632]
cloning efficiency [2]: 25% | surviving cells on day 3 per seeded cells ([3]; Group 1: 10 μM, 1 hour pretreatment and first 12 hours after dissociation only): 270% | number of cells on day 6 relative to initially seeded cells ([3]; Group 1: first 12 hours only): 670% | population doubling time ([3]; Group 1): 49.0 h | surviving cells on day 3 per seeded cells ([3]; Group 2: 10 μM, 1 hour pretreatment and entire culture period): 290% | number of cells on day 6 relative to initially seeded cells ([3]; Group 2: entire culture period): 860% | population doubling time ([3]; Group 2): 41.5 h | percentage of apoptosis (active Caspase 3-positive cells) ([3]; both Groups 1 and 2, days 3 and 5): less than 1% | cloning efficiency (ratio of formed colonies to initially seeded human embryonic stem cells) ([1]; 10 μM Y-27632, 500 cells/well on MEF, six days culture, 1% without inhibitor): 27% | colony formation from dissociated hES cells after extended passaging ([1]; KhES-1 after extended passaging (low-density culture with Y-27632 treatment), few colonies without it): 32.5±11% | cloning efficiency per seeded human ES cell, feeder-free [4]: 10.2% and 10.2±1.2% | surviving cells on day 6 (of plated cells) [5]: 70% | Oct3/4 positive cells (undifferentiated-state ES cell marker) ([6]; day 24 of differentiation culture): less than 10% | Pax6-positive cells ([6]; day 24 of differentiation culture, Y-27632 first six days, with LeftyA, Dkk1, BMPR1A-Fc): about 80% | cell aggregates with many Bf1 positive cells (brain precursor marker) ([6]; day 35 of differentiation culture): about 60% | TUNEL-positive (apoptotic) cells [8]: 9%

Structure (SMILES): COC(=O)C[C@H](NC(=O)[C@H](C)NC(=O)[C@@H](NC(=O)OCc1ccccc1)C(C)C)C(=O)CF [ZVAD] (Cbz-Val-Ala-Asp(OMe)-CH2F)
TUNEL-positive (apoptotic) cells [8]: 72%
